Results as given in patent publication EP1976513B1 (priority 2006, dated 2007).
Where “and” joins values, the source holds several entries; their conditions need not be identical. Equal entries are not always repeated.

What follows are compounds tested against human serotonin reuptake transporter (Homo sapiens, UniProt P31645) (assay: cell-based). Conditions: read-out: Human IC50 (nM) hSERT.
Chain of human serotonin reuptake transporter (P31645 whole entry): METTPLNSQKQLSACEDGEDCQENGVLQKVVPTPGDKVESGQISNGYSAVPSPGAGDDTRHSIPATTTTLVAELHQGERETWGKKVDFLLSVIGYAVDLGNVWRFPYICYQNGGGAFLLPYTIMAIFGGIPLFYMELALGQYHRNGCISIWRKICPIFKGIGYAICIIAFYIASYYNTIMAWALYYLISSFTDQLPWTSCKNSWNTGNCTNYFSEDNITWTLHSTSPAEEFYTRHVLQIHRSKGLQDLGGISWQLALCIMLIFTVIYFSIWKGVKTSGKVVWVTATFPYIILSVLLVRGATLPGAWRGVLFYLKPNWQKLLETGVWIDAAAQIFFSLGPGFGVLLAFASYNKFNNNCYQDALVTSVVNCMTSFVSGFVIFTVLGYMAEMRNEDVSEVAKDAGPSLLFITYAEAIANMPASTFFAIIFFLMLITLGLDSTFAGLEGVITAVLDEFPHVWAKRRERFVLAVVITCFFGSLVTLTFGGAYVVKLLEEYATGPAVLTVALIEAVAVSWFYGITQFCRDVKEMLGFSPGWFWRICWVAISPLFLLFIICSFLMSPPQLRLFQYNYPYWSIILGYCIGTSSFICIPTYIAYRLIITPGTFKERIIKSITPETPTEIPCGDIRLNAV

SMILES | IC50 [nM]
CN(C)CC1(c2ccc(Cl)c(Cl)c2)CCC(F)CC1 (stereo not drawn) [Compound 261, 1-(1-(3,4-dichlorophenyl)-4-fluorocyclohexyl)-N,N-dimethylmethanamine] | 30
NCC1(c2ccc(Cl)c(Cl)c2)CCC(O)CC1 (stereo not drawn) [Compound 262, 4-(aminomethyl)-4-(3,4-dichlorophenyl)cyclohexanol] | > 10000
CN(C)CC1(c2ccc(Cl)c(Cl)c2)CCC(Oc2ccccc2)CC1 (stereo not drawn) [Compound 266, 1-(1-(3,4-dichlorophenyl)-4-phenoxycyclohexyl)-N,N-dimethylmethanamine] | 168
CN(C)CC1(c2ccc(Cl)c(Cl)c2)CCC2(CC1)OCCO2 [Compound 271, 1-(8-(3,4-dichlorophenyl)-1,4-dioxaspiro[4.5]decan-8-yl)-N,N-dimethylmethanamine] | 79

Same assay, conditions: recombinant human serotonin transporter (SERT); read-out: Human IC50 (nM) hSERT

SMILES | IC50
CNCC1(c2ccc3ccccc3c2)CCC(C)(O)CC1 (stereo not drawn) [Compound 222, 1-methyl-4-((methylamino)methyl)-4-(naphthalen-2-yl)-cyclohexanol] | 609 nM
CNCC1(c2ccc3ccccc3c2)CCC(C)(O)CC1 (stereo not drawn) [Compound 223, 1-methyl-4-((methylamino)methyl)-4-(naphthalen-2-yl)cyclohexanol] | 73 nM
CN(C)CC1(c2ccc3ccccc3c2)CCC(C)(O)CC1 (stereo not drawn) [Compound 224, 4-((dimethylamino)methyl)-1-methyl-4-(naphthalen-2-yl)cyclohexanol] | 69 nM
CN(C)CC1(c2ccc3ccccc3c2)CCC(O)CC1 (stereo not drawn) [Compound 228, 4-((dimethylamino)methyl)-4-(naphthalen-2-yl)cyclohexanol] | 96 nM
CN(C)CC1(c2ccc3ccccc3c2)CCC(O)CC1 (stereo not drawn) [Compound 229, 4-((dimethylamino)methyl)-4-(naphthalen-2-yl)cyclohexanol] | 11 nM
CN(C)CC1(c2ccc3ccccc3c2)CCC(Cl)CC1 (stereo not drawn) [Compound 230, 1-(4-chloro-1-(naphthalen-2-yl)cyclohexyl)-N,N-dimethylmethanamine] | 30 nM
CN(C)CC1(c2ccc3ccccc3c2)CCC(F)CC1 (stereo not drawn) [Compound 233, 1-(4-fluoro-1-(naphthalen-2-yl)cyclohexyl)-N,N-dimethylmethanamine] | 37 nM
CN(C)CC1(c2ccc3ccccc3c2)CCC(F)CC1 (stereo not drawn) [Compound 235, 1-(4-fluoro-1-(naphthalen-2-yl)cyclohexyl)-N,N-dimethylmethanamine] | 9 nM
CN(C)CC1(c2ccc3c(c2)OCO3)CCC(O)CC1 (stereo not drawn) [Compound 238, 4-(benzo[d][1,3]dioxol-5-yl)-4-((dimethylamino)methyl)cyclohexanol] | 1180 nM
CNCC1(c2ccc3c(c2)OCO3)CCC(C)(O)CC1 (stereo not drawn) [Compound 239, 4-(benzo[d][1,3]dioxol-5-yl)-1-methyl-4-((methylamino)methyl)cyclohexanol] | 8660 nM
CN(C)CC1(c2ccc3c(c2)OCO3)CCC(C)(O)CC1 (stereo not drawn) [Compound 240, 4-(benzo[d][1,3]dioxol-5-yl)-4-((dimethylamino)methyl)-1-methylcyclohexanol] | 1810 nM
CNCC1(c2ccc3c(c2)OCO3)CCC(C)(O)CC1 (stereo not drawn) [Compound 241, 4-(benzo[d][1,3]dioxol-5-yl)-1-methyl-4-((methylamino)methyl)cyclohexanol] | > 10000 nM
CN(C)CC1(c2ccc3c(c2)OCO3)CCC(C)(O)CC1 (stereo not drawn) [Compound 242, 4-(benzo[d][1,3]dioxol-5-yl)-4-((dimethylamino)methyl)-1-methylcyclohexanol] | 7660 nM
CNCC1(c2ccc3ccccc3c2)CCC(O)(CF)CC1 (stereo not drawn) [Compound 243, 1-(fluoromethyl)-4-((methylamino)methyl)-4-(naphthalen-2-yl)cyclohexanol] | 26 nM
CN(C)CC1(c2ccc3ccccc3c2)CCC(O)(CF)CC1 (stereo not drawn) [Compound 244, 4-((dimethylamino)methyl)-1-(fluoromethyl)-4-(naphthalen-2-yl)cyclohexanol] | 14 nM
CNCC1(c2ccc3ccccc3c2)CCC(O)(CF)CC1 (stereo not drawn) [Compound 245, 1-(fluoromethyl)-4-((methylamino)methyl)-4-(naphthalen-2-yl)cyclohexanol] | 538 nM
CN(C)CC1(c2ccc3ccccc3c2)CCC(O)(CF)CC1 (stereo not drawn) [Compound 246, 4-((dimethylamino)methyl)-1-(fluoromethyl)-4-(naphthalen-2-yl)cyclohexanol] | 43 nM
CN(C)CC1(c2ccc(OC(F)(F)F)cc2)CCC(C)(O)CC1 (stereo not drawn) [Compound 248, 4-((dimethylamino)methyl)-1-methyl-4-(4-(trifluoromethoxy)phenyl)cyclohexanol] | 159 nM

SMILES | IC50
CNCC1(c2ccc3ccccc3c2)CCC(F)(F)CC1 [Compound 251, 1-(4,4-difluoro-1-(naphthalen-2-yl)cyclohexyl)-N-methylmethanamine] | 199 nM
CN(C)CC1(c2ccc3ccccc3c2)CCC(F)(F)CC1 [Compound 252, 1-(4,4-difluoro-1-(naphthalen-2-yl)cyclohexyl)-N,N-dimethylmethanamine] | 11 nM and 12 nM
COC1CCC(CN)(c2ccc(Cl)c(Cl)c2)CC1 (stereo not drawn) [Compound 255, (1-(3,4-dichlorophenyl)-4-methoxycyclohexyl)methanamine] | 1420 nM
COC1CCC(CN)(c2ccc(Cl)c(Cl)c2)CC1 (stereo not drawn) [Compound 257, (1-(3,4-dichlorophenyl)-4-methoxycyclohexyl)methanamine] | 2080 nM
CNCC1(c2ccc(Cl)c(Cl)c2)CCC(OC)CC1 (stereo not drawn) [Compound 259, 1-(1-(3,4-dichlorophenyl)-4-methoxycyclohexyl)-N-methylmethanamine] | 5890 nM
CN(C)CC1(c2ccc(Cl)c(Cl)c2)CCC(O)CC1 (stereo not drawn) [Compound 263, 4-(3,4-dichlorophenyl)-4-((dimethylamino)methyl)cyclohexanol] | 674 nM
CNCC1(c2ccc(Cl)c(Cl)c2)CCC(F)CC1 (stereo not drawn) [Compound 264, 1-(1-(3,4-dichlorophenyl)-4-fluorocyclohexyl)-N-methylmethanamine] | 1050 nM
NCC1(c2ccc(Cl)c(Cl)c2)CCC(Oc2ccccc2)CC1 (stereo not drawn) [Compound 265, (1-(3,4-dichlorophenyl)-4-phenoxycyclohexyl)methanamine] | 109 nM
NCC1(c2ccc(Cl)c(Cl)c2)CCC(F)(F)CC1 [Compound 267, (1-(3,4-dichlorophenyl)-4,4-difluorocyclohexyl)methanamine] | 1290 nM
CNCC1(c2ccc(Cl)c(Cl)c2)CCC2(CC1)OCCO2 [Compound 270, 1-(8-(3,4-dichlorophenyl)-1,4-dioxaspiro[4.5]decan-8-yl)-N-methylmethanamine] | 469 nM
CNCC1(c2ccc(Cl)c(Cl)c2)CCC(C)(O)CC1 (stereo not drawn) [Compound 273, 4-(3,4-dichlorophenyl)-1-methyl-4-((methylamino)methyl)cyclohexanol] | 830 nM
CN(C)CC1(c2ccc(Cl)c(Cl)c2)CCC(C)(O)CC1 (stereo not drawn) [Compound 274, 4-(3,4-dichlorophenyl)-4-((dimethylamino)methyl)-1-methylcyclohexanol] | 809 nM
CCC1(O)CCC(CN)(c2ccc(Cl)c(Cl)c2)CC1 (stereo not drawn) [Compound 278, 4-(aminomethyl)-4-(3,4-dichlorophenyl)-1-ethylcyclohexanol] | 5140 nM
CCC1(O)CCC(CN(C)C)(c2ccc(Cl)c(Cl)c2)CC1 (stereo not drawn) [Compound 280, 4-(3,4-dichlorophenyl)-4-((dimethylamino)methyl)-1-ethylcyclohexanol] | 7 nM
CCC1(O)CCC(CN)(c2ccc(Cl)c(Cl)c2)CC1 (stereo not drawn) [Compound 281, 4-(aminomethyl)-4-(3,4-dichlorophenyl)-1-ethylcyclohexanol] | 256 nM
CCC1(O)CCC(CN(C)C)(c2ccc(Cl)c(Cl)c2)CC1 (stereo not drawn) [Compound 283, 4-(3,4-dichlorophenyl)-4-((dimethylamino)methyl)-1-ethylcyclohexanol] | 20 nM
CCCC1(O)CCC(CN)(c2ccc(Cl)c(Cl)c2)CC1 (stereo not drawn) [Compound 284, 4-(aminomethyl)-4-(3,4-dichlorophenyl)-1-propylcyclohexanol] | 7900 nM

Each compound was assayed against T1, human dopamine reuptake transporter (Homo sapiens, UniProt Q01959) (assay: cell-based). Conditions: Human IC50 (nM) hDAT.
T1 construct: expressed in transfected cells; host or cells: CHO-K1 or HEK293
T1 sequence (Q01959 whole entry): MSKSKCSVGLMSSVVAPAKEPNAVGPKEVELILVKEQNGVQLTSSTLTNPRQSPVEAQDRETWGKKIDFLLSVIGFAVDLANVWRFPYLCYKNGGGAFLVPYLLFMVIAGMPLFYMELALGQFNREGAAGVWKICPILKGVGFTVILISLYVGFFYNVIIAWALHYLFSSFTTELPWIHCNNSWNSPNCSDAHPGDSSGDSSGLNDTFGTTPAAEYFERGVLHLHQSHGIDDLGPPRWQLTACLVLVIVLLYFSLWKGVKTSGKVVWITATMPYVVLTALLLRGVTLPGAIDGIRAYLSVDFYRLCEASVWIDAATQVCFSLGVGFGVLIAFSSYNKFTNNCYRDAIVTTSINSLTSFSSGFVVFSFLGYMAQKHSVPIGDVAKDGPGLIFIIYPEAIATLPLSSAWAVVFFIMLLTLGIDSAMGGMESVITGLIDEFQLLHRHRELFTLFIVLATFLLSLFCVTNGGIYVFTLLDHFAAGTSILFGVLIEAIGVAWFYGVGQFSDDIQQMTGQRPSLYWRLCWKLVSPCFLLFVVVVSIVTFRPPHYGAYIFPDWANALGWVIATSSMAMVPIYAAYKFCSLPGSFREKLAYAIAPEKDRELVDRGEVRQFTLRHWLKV

SMILES | IC50 [nM]
CN(C)CC1(c2ccc(Cl)c(Cl)c2)CCC(F)CC1 (stereo not drawn) [Compound 261, 1-(1-(3,4-dichlorophenyl)-4-fluorocyclohexyl)-N,N-dimethylmethanamine] | 7

Same assay, conditions: read-out: Human IC50 (nM) hDAT

SMILES | IC50 [nM]
CNCC1(c2ccc3ccccc3c2)CCC(C)(O)CC1 (stereo not drawn) [Compound 222, 1-methyl-4-((methylamino)methyl)-4-(naphthalen-2-yl)-cyclohexanol] | 2090
CNCC1(c2ccc3ccccc3c2)CCC(C)(O)CC1 (stereo not drawn) [Compound 223, 1-methyl-4-((methylamino)methyl)-4-(naphthalen-2-yl)cyclohexanol] | 874
CN(C)CC1(c2ccc3ccccc3c2)CCC(O)CC1 (stereo not drawn) [Compound 228, 4-((dimethylamino)methyl)-4-(naphthalen-2-yl)cyclohexanol] | 1560
CN(C)CC1(c2ccc3ccccc3c2)CCC(O)CC1 (stereo not drawn) [Compound 229, 4-((dimethylamino)methyl)-4-(naphthalen-2-yl)cyclohexanol] | 40
CN(C)CC1(c2ccc(Cl)c(Cl)c2)CCC(Oc2ccccc2)CC1 (stereo not drawn) [Compound 266, 1-(1-(3,4-dichlorophenyl)-4-phenoxycyclohexyl)-N,N-dimethylmethanamine] | 859

Same assay, conditions: recombinant human dopamine transporter (DAT); read-out: Human IC50 (nM) hDAT

SMILES | IC50
CN(C)CC1(c2ccc3ccccc3c2)CCC(C)(O)CC1 (stereo not drawn) [Compound 224, 4-((dimethylamino)methyl)-1-methyl-4-(naphthalen-2-yl)cyclohexanol] | 993 nM
CN(C)CC1(c2ccc3ccccc3c2)CCC(Cl)CC1 (stereo not drawn) [Compound 230, 1-(4-chloro-1-(naphthalen-2-yl)cyclohexyl)-N,N-dimethylmethanamine] | 11 nM
CN(C)CC1(c2ccc3ccccc3c2)CCC(F)CC1 (stereo not drawn) [Compound 233, 1-(4-fluoro-1-(naphthalen-2-yl)cyclohexyl)-N,N-dimethylmethanamine] | 3 nM
CN(C)CC1(c2ccc3ccccc3c2)CCC(F)CC1 (stereo not drawn) [Compound 235, 1-(4-fluoro-1-(naphthalen-2-yl)cyclohexyl)-N,N-dimethylmethanamine] | 92 nM
CN(C)CC1(c2ccc3c(c2)OCO3)CCC(O)CC1 (stereo not drawn) [Compound 238, 4-(benzo[d][1,3]dioxol-5-yl)-4-((dimethylamino)methyl)cyclohexanol] | 5720 nM
CNCC1(c2ccc3c(c2)OCO3)CCC(C)(O)CC1 (stereo not drawn) [Compound 239, 4-(benzo[d][1,3]dioxol-5-yl)-1-methyl-4-((methylamino)methyl)cyclohexanol] | 9450 nM
CN(C)CC1(c2ccc3c(c2)OCO3)CCC(C)(O)CC1 (stereo not drawn) [Compound 240, 4-(benzo[d][1,3]dioxol-5-yl)-4-((dimethylamino)methyl)-1-methylcyclohexanol] | 9030 nM
CNCC1(c2ccc3c(c2)OCO3)CCC(C)(O)CC1 (stereo not drawn) [Compound 241, 4-(benzo[d][1,3]dioxol-5-yl)-1-methyl-4-((methylamino)methyl)cyclohexanol] | > 10000 nM
CN(C)CC1(c2ccc3c(c2)OCO3)CCC(C)(O)CC1 (stereo not drawn) [Compound 242, 4-(benzo[d][1,3]dioxol-5-yl)-4-((dimethylamino)methyl)-1-methylcyclohexanol] | > 10000 nM
CNCC1(c2ccc3ccccc3c2)CCC(O)(CF)CC1 (stereo not drawn) [Compound 243, 1-(fluoromethyl)-4-((methylamino)methyl)-4-(naphthalen-2-yl)cyclohexanol] | 851 nM
CN(C)CC1(c2ccc3ccccc3c2)CCC(O)(CF)CC1 (stereo not drawn) [Compound 244, 4-((dimethylamino)methyl)-1-(fluoromethyl)-4-(naphthalen-2-yl)cyclohexanol] | 334 nM
CNCC1(c2ccc3ccccc3c2)CCC(O)(CF)CC1 (stereo not drawn) [Compound 245, 1-(fluoromethyl)-4-((methylamino)methyl)-4-(naphthalen-2-yl)cyclohexanol] | 2270 nM
CN(C)CC1(c2ccc3ccccc3c2)CCC(O)(CF)CC1 (stereo not drawn) [Compound 246, 4-((dimethylamino)methyl)-1-(fluoromethyl)-4-(naphthalen-2-yl)cyclohexanol] | 282 nM
CN(C)CC1(c2ccc(OC(F)(F)F)cc2)CCC(C)(O)CC1 (stereo not drawn) [Compound 248, 4-((dimethylamino)methyl)-1-methyl-4-(4-(trifluoromethoxy)phenyl)cyclohexanol] | 7250 nM
CNCC1(c2ccc3ccccc3c2)CCC(F)(F)CC1 [Compound 251, 1-(4,4-difluoro-1-(naphthalen-2-yl)cyclohexyl)-N-methylmethanamine] | 107 nM
CN(C)CC1(c2ccc3ccccc3c2)CCC(F)(F)CC1 [Compound 252, 1-(4,4-difluoro-1-(naphthalen-2-yl)cyclohexyl)-N,N-dimethylmethanamine] | 6 nM and 5 nM
COC1CCC(CN)(c2ccc(Cl)c(Cl)c2)CC1 (stereo not drawn) [Compound 255, (1-(3,4-dichlorophenyl)-4-methoxycyclohexyl)methanamine] | 170 nM

SMILES | IC50
COC1CCC(CN)(c2ccc(Cl)c(Cl)c2)CC1 (stereo not drawn) [Compound 257, (1-(3,4-dichlorophenyl)-4-methoxycyclohexyl)methanamine] | 2000 nM
CNCC1(c2ccc(Cl)c(Cl)c2)CCC(OC)CC1 (stereo not drawn) [Compound 259, 1-(1-(3,4-dichlorophenyl)-4-methoxycyclohexyl)-N-methylmethanamine] | 665 nM
NCC1(c2ccc(Cl)c(Cl)c2)CCC(O)CC1 (stereo not drawn) [Compound 262, 4-(aminomethyl)-4-(3,4-dichlorophenyl)cyclohexanol] | 4280 nM
CN(C)CC1(c2ccc(Cl)c(Cl)c2)CCC(O)CC1 (stereo not drawn) [Compound 263, 4-(3,4-dichlorophenyl)-4-((dimethylamino)methyl)cyclohexanol] | 498 nM
CNCC1(c2ccc(Cl)c(Cl)c2)CCC(F)CC1 (stereo not drawn) [Compound 264, 1-(1-(3,4-dichlorophenyl)-4-fluorocyclohexyl)-N-methylmethanamine] | 17 nM
NCC1(c2ccc(Cl)c(Cl)c2)CCC(Oc2ccccc2)CC1 (stereo not drawn) [Compound 265, (1-(3,4-dichlorophenyl)-4-phenoxycyclohexyl)methanamine] | 1450 nM
NCC1(c2ccc(Cl)c(Cl)c2)CCC(F)(F)CC1 [Compound 267, (1-(3,4-dichlorophenyl)-4,4-difluorocyclohexyl)methanamine] | 147 nM
CNCC1(c2ccc(Cl)c(Cl)c2)CCC2(CC1)OCCO2 [Compound 270, 1-(8-(3,4-dichlorophenyl)-1,4-dioxaspiro[4.5]decan-8-yl)-N-methylmethanamine] | 376 nM
CN(C)CC1(c2ccc(Cl)c(Cl)c2)CCC2(CC1)OCCO2 [Compound 271, 1-(8-(3,4-dichlorophenyl)-1,4-dioxaspiro[4.5]decan-8-yl)-N,N-dimethylmethanamine] | 197 nM
CNCC1(c2ccc(Cl)c(Cl)c2)CCC(C)(O)CC1 (stereo not drawn) [Compound 273, 4-(3,4-dichlorophenyl)-1-methyl-4-((methylamino)methyl)cyclohexanol] | 528 nM
CN(C)CC1(c2ccc(Cl)c(Cl)c2)CCC(C)(O)CC1 (stereo not drawn) [Compound 274, 4-(3,4-dichlorophenyl)-4-((dimethylamino)methyl)-1-methylcyclohexanol] | 251 nM
CCC1(O)CCC(CN)(c2ccc(Cl)c(Cl)c2)CC1 (stereo not drawn) [Compound 278, 4-(aminomethyl)-4-(3,4-dichlorophenyl)-1-ethylcyclohexanol] | 3190 nM
CCC1(O)CCC(CN(C)C)(c2ccc(Cl)c(Cl)c2)CC1 (stereo not drawn) [Compound 280, 4-(3,4-dichlorophenyl)-4-((dimethylamino)methyl)-1-ethylcyclohexanol] | 242 nM
CCC1(O)CCC(CN)(c2ccc(Cl)c(Cl)c2)CC1 (stereo not drawn) [Compound 281, 4-(aminomethyl)-4-(3,4-dichlorophenyl)-1-ethylcyclohexanol] | 384 nM
CCC1(O)CCC(CN(C)C)(c2ccc(Cl)c(Cl)c2)CC1 (stereo not drawn) [Compound 283, 4-(3,4-dichlorophenyl)-4-((dimethylamino)methyl)-1-ethylcyclohexanol] | 37 nM
CCCC1(O)CCC(CN)(c2ccc(Cl)c(Cl)c2)CC1 (stereo not drawn) [Compound 284, 4-(aminomethyl)-4-(3,4-dichlorophenyl)-1-propylcyclohexanol] | 2460 nM
